Tests used:
[1] = system: SETVI (Foxtail, Green); test: Postemergence herbicidal evaluation; format: in vivo, Setaria viridis; conditions: postemergence
Procedure, shortened: (§1)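 Two-week seedlings sprayed postemergence at 40 psi; formulation: 1:1 acetone/water, 0.5% TWEEN 20; application ≈0.0156–0.500 kg/ha. Greenhouse grow-out, then 0–9 visual scoring at 4–5 weeks.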

[2] = system: ORYSAT (Rice, Tebonnet); test: Postemergence herbicidal evaluation; format: in vivo, Oryza sativa, (L.) Tebonnet; conditions: postemergence
Procedure, shortened: as §1

[3] = system: ABUTH (Velvetleaf); test: Postemergence herbicidal evaluation; format: in vivo, Abutilon theophrasti; conditions: postemergence
Procedure, shortened: as §1

[4] = system: SAGPY (Arrowhead (Pygmaea)); test: Preemergence weed control under flooded paddy conditions; format: in vivo, Sagittaria pygmaea; conditions: rated 3-4 weeks after treatment
Procedure, shortened: (§2)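 Seeds or propagules sown in top 0.5 cm of silt loam soil, flooded 1.5 to 3 cm above surface throughout. Compound in 50/50 v/v aqueous/acetone pipetted into flood water at about 0.0313 to 0.500 kg/ha. Visual 0-9 rating versus control after three to four weeks in greenhouse.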

[5] = system: SAGPY (Arrowhead (Pygmaea)); test: Postemergence weed control under flooded paddy conditions; format: in vivo, Sagittaria pygmaea; conditions: postemergence weeds, rated 3 to 4 weeks after treatment
Procedure, shortened: (§3)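 Injury ratings (0–9 scale covering stand, vigor, malformation, size, chlorosis and overall appearance versus control) were made three to four weeks after treatment. Test material, about 0.0313 to 0.500 kg/ha a.i. in 50/50 v/v aqueous/acetone, was added to flood water 1.5 to 3 cm deep over 3 to 5 cm weeds and 1.5 to 2.5 leaf rice.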

[6] = system: CASOB (Sicklepod); test: Preemergence herbicidal evaluation; format: in vivo, Cassia obtusifolia; conditions: preemergence, rated 4-5 weeks after treatment, 0-9 scale
Procedure, shortened: (§4)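 Test compound, dissolved in aqueous acetone, was sprayed over planted soil cups at an equivalent of about 0.0156 to 0.500 kg/ha; seeds had been mixed with potting soil. Greenhouse growth followed, with visual 0-9 scoring of injury at four to five weeks.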

[7] = system: ABUTH (Velvetleaf); test: Preemergence herbicidal evaluation; format: in vivo, Abutilon theophrasti; conditions: preemergence, rated 4-5 weeks after treatment, 0-9 scale
Procedure, shortened: as §4

[8] = system: SETVI (Foxtail, Green); test: Preemergence herbicidal evaluation; format: in vivo, Setaria viridis; conditions: preemergence, rated 4-5 weeks after treatment, 0-9 scale
Procedure, shortened: as §4

[9] = system: AMBEL (Ragweed, Common); test: Postemergence herbicidal evaluation; format: in vivo, Ambrosia artemisifolia; conditions: postemergence
Procedure, shortened: as §1

[10] = system: CYPIR (Rice Flatsedge); test: Postemergence weed control under flooded paddy conditions; format: in vivo, Cyperus iria; conditions: postemergence weeds, rated 3 to 4 weeks after treatment
Procedure, shortened: as §3

[11] = system: GLXMAW (Soybean, Williams); test: Postemergence herbicidal evaluation; format: in vivo, Glycine max, (L.) Merr. cv Williams; conditions: postemergence
Procedure, shortened: as §1

[12] = system: ECHCG (Barnyardgrass); test: Postemergence herbicidal evaluation; format: in vivo, Echinochloa crus-galli; conditions: postemergence
Procedure, shortened: as §1

[13] = system: MOOVA (Monochoria); test: Preemergence weed control under flooded paddy conditions; format: in vivo, Monochoria vaginalis; conditions: rated 3-4 weeks after treatment
Procedure, shortened: as §2

[14] = system: TRZAWR (Wheat, Winter, cv Riband); test: Postemergence herbicidal evaluation; format: in vivo, Triticum aestivum; conditions: postemergence
Procedure, shortened: as §1

**Q.** What does the source list for `CC(C)OC(=O)CC1SC(=Nc2cc(-n3c(=O)cc(C(F)(F)F)n(C)c3=O)c(F)cc2Cl)N(C)C1=O` (centres unmarked) [Compound 89, Isopropyl 2-{{2-chloro-5-[3,6-dihydro-3-methyl-2,6-dioxo-4-(trifluoromethyl)-1(2H)-pyrimidinyl]-4-fluorophenyl}imino}-3-methyl-4-oxo-5-thiazolidineacetate]?
**A.** SETVI herbicidal rating ([1]; rate 0.0158 kg/ha): 7.0; SETVI herbicidal rating ([1]; rate 0.0313 kg/ha): 9.0; SETVI herbicidal rating ([1]; rate 0.0625 kg/ha): 9.0; SETVI herbicidal rating ([1]; rate 0.1250 kg/ha): 9.0; ORYSAT herbicidal rating ([2]; rate 0.0158 kg/ha): 1.0; ORYSAT herbicidal rating ([2]; rate 0.0313 kg/ha): 4.0; ORYSAT herbicidal rating ([2]; rate 0.0625 kg/ha): 6.5; ORYSAT herbicidal rating ([2]; rate 0.1250 kg/ha): 8.0; ABUTH herbicidal rating ([3]; rate 0.0158 kg/ha): 9.0; ABUTH herbicidal rating ([3]; rate 0.0313 kg/ha): 9.0; ABUTH herbicidal rating ([3]; rate 0.0625 kg/ha): 9.0; ABUTH herbicidal rating ([3]; rate 0.1250 kg/ha): 9.0; SAGPY herbicidal effect rating ([4]; 0.0313 kg/ha): 4.0; SAGPY herbicidal effect rating ([4]; 0.0625 kg/ha): 5.0; SAGPY herbicidal effect rating ([4]; 0.1250 kg/ha): 9.0; SAGPY herbicidal effect rating ([4]; 0.2500 kg/ha): 9.0; Herbicidal rating SAGPY ([5]; Rate 0.0313 kg/ha): 4.0; Herbicidal rating SAGPY ([5]; Rate 0.0625 kg/ha): 5.0; Herbicidal rating SAGPY ([5]; Rate 0.1250 kg/ha): 9.0; Herbicidal rating SAGPY ([5]; Rate 0.2500 kg/ha): 9.0; CASOB rating ([6]; 0.0156 kg/ha): 0.0; CASOB rating ([6]; 0.0313 kg/ha): 0.0; CASOB rating ([6]; 0.0625 kg/ha): 0.0; CASOB rating ([6]; 0.1250 kg/ha): 3.0; CASOB rating ([6]; 0.2500 kg/ha): 6.0; CASOB rating ([6]; 0.5000 kg/ha): 9.0; ABUTH rating ([7]; 0.0156 kg/ha): 1.5; ABUTH rating ([7]; 0.0313 kg/ha): 6.5; ABUTH rating ([7]; 0.0625 kg/ha): 9.0; ABUTH rating ([7]; 0.1250 kg/ha): 9.0; ABUTH rating ([7]; 0.2500 kg/ha): 9.0; ABUTH rating ([7]; 0.5000 kg/ha): 9.0; SETVI rating ([8]; 0.0156 kg/ha): 0.0; SETVI rating ([8]; 0.0313 kg/ha): 1.5; SETVI rating ([8]; 0.0625 kg/ha): 1.5; SETVI rating ([8]; 0.1250 kg/ha): 9.0; SETVI rating ([8]; 0.2500 kg/ha): 9.0; SETVI rating ([8]; 0.5000 kg/ha): 9.0; AMBEL herbicidal rating ([9]; rate 0.0158 kg/ha): 4.0; AMBEL herbicidal rating ([9]; rate 0.0313 kg/ha): 9.0; AMBEL herbicidal rating ([9]; rate 0.0625 kg/ha): 9.0; AMBEL herbicidal rating ([9]; rate 0.1250 kg/ha): 9.0; Herbicidal rating CYPIR ([10]; Rate 0.0313 kg/ha): 0.0; Herbicidal rating CYPIR ([10]; Rate 0.0625 kg/ha): 0.0; Herbicidal rating CYPIR ([10]; Rate 0.1250 kg/ha): 2.0; Herbicidal rating CYPIR ([10]; Rate 0.2500 kg/ha): 4.0; GLXMAW herbicidal rating ([11]; rate 0.0158 kg/ha): 7.5; GLXMAW herbicidal rating ([11]; rate 0.0313 kg/ha): 9.0; GLXMAW herbicidal rating ([11]; rate 0.0625 kg/ha): 9.0; GLXMAW herbicidal rating ([11]; rate 0.1250 kg/ha): 9.0; ECHCG herbicidal rating ([12]; rate 0.0158 kg/ha): 2.0; ECHCG herbicidal rating ([12]; rate 0.0313 kg/ha): 9.0; ECHCG herbicidal rating ([12]; rate 0.0625 kg/ha): 9.0; ECHCG herbicidal rating ([12]; rate 0.1250 kg/ha): 9.0; MOOVA herbicidal effect rating ([13]; 0.0313 kg/ha): 9.0; MOOVA herbicidal effect rating ([13]; 0.0625 kg/ha): 9.0; MOOVA herbicidal effect rating ([13]; 0.1250 kg/ha): 9.0; MOOVA herbicidal effect rating ([13]; 0.2500 kg/ha): 9.0; TRZAWR herbicidal rating ([14]; rate 0.0158 kg/ha): 5.5; TRZAWR herbicidal rating ([14]; rate 0.0313 kg/ha): 7.0; TRZAWR herbicidal rating ([14]; rate 0.0625 kg/ha): 7.0; TRZAWR herbicidal rating ([14]; rate 0.1250 kg/ha): 7.0

Reference: patent US20020137929A1, “1 - (3-heterocyclylphenyl) isothiourea, -isourea, -guanidine and -amidine herbicidal agents” (Intellectual Property Department, BASF Aktiengesellschaft, priority 1998, published 2002)
